In patent publication US20240208965A1, “HETEROARYL ALKYLENE SUBSTITUTED 2-OXOQUINAZOLINE DERIVATIVES AS METHIONINE ADENOSYLTRANSFERASE 2A INHIBITORS” (IDEAYA BIOSCIENCES, INC., priority 2020, published 2024):

target: T1, Human MAT2A (Homo sapiens, UniProt P31153); experiment: Phosphate Sensor Fluorescence Assay (Biologic Example B); assay type: biochemical; details: MAT2A inhibition, Biological Example B procedure (Compounds 1.029-1.070); 5.8 nM MAT2A, 500 uM L-methionine, 500 uM ATP
T1 construct: Human MAT2A: Cepter, amino acids 1-395 Clone ID 334, lot 00023-148; purchased Cepter clone ID 334, lot 00023-148
Method: The ability of the compound of present disclosure to inhibit MAT2A enzyme was determined using a Phosphate Sensor Fluorescence Assay described below.
Biologic Example B. Phosphate Sensor Fluorescence Assay
MAT2A enzyme is incubated with a test compound in DMSO or DMSO and its substrates (L-methionine and ATP) in a microtiter plate. The enzymatic reaction is stopped by the addition of Working Phosphate Sensor Mixture. The plate is analyzed for fluorescence at 450 nm. The high control (DMSO with enzyme and its substrates) gives high fluorescence which represents no inhibition of enzymatic activity while the low control (DMSO with MAT2A substrates and no enzyme) gives low fluorescence which represents full inhibition of enzymatic activity.
• Human MAT2A: Cepter, amino acids 1-395 Clone ID 334, lot 00023-148 • Tris, pH 7.5: Invitrogen cat #15567-027 • KCl: Ambion cat #AM9640G • MgCl2: Ambion cat #AM9530G • Brij-35: Sigma cat B4184-10ML • DTT: Goldbio cat #DTT100 • BGG: Sigma cat #G5009-25G • PNP: Novus Biologicals cat #NBP1-50872 • 7-MEG: Cayman Chemical cat #15988 • L-Methionine: JTBaker P/N 2085-05 • ATP: Promega P/N V915B • Phosphate Sensor: Invitrogen cat #PV4407 • EDTA: Life Tech cat #15575-038 • Assay plate: 384-well black polypropylene plate: Corning P/N 3573
• Assay Buffer: 50 mM Tris, pH 7.5/50 mM KCl/10 mM MgCl2/0.01% Brij-35/1 mM DTT/0.01% BGG/40 nM PNP/6 uM 7-MEG • MAT2A: 5.8 nM MAT2A (1-395), Cepter, clone ID 334, lot 00023-148 before the addition of Working Phosphate Sensor Mixture • L-methionine: 500 uM before the addition of Working Phosphate Sensor Mixture • ATP: 500 uM before the addition of Working Phosphate Sensor Mixture
For the assay, a mixture of 1 mM L-methionine/1 mM ATP (2× final pre-stopped concentration) in assay buffer; MAT2A (2× final pre-stopped concentration) in Assay Buffer and Working Phosphate Sensor Mixture (1.5 uM Phosphate Sensor/30 mM EDTA in Assay Buffer, which is 3× final concentrations) were prepared. Test compounds or DMSO were added to the appropriate well using a Beckman Coulter Echo 550 acoustic liquid handler. 10 μL/well of Assay Buffer was added to the wells corresponding to the negative control and 10 μL/well of MAT2A was added to all the wells except for those corresponding to the negative control. After incubating the plate at room temperature for 15 minutes, 10 μL/well of the 1 mM L-methionine/1 mM ATP mixture was added to all wells. The plate was centrifuged at 1000 rpm for 1 minute and then incubated at room temperature for 1 hour. 10 μL of the Working Phosphate Sensor Mixture was added to all wells and the plate was centrifuged at 1000 rpm for 1 minute. The plate was read for fluorescence at 450 nm after exciting at 430 nm on a Tecan Spark microplate reader.
Percent inhibition was calculated in Chemical and Biological Information System (CBIS), (ChemInnovation Software Inc.). Curves were fitted by CBIS as % inhibition vs. log [compound concentration] using a 4-parameter inhibition model.
Fit=(A+((B−A)/(1+((C/x)^D))))
Compounds 1.001-1.028 were tested using the procedure described in Bioogical Example A, described above. Compounds 1.029-1.070 were tested using the procedure described in Biological Example B, described above.

T1 sequence (P31153 whole entry, the tested form may be a part): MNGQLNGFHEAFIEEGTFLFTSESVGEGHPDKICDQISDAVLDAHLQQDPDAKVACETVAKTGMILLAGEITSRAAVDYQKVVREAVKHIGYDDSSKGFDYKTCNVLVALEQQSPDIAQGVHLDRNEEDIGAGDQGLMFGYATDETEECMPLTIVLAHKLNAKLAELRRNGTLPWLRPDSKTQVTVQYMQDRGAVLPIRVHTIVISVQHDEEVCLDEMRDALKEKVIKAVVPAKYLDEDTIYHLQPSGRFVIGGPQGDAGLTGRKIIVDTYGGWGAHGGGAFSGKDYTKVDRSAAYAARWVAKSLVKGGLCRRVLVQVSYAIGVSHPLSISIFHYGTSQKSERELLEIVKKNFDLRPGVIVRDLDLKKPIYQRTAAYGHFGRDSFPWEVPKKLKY

Row | IC50 | SMILES
1 | < 10 nM | CC(c1cc[nH]n1)n1c(=O)nc(N(C)C)c2ccc(Cl)cc21 (racemic) [1.062, 1-(1-(1H-pyrazol-3-yl)ethyl)-7-chloro-4-(dimethylamino)quinazolin-2(1H)-one]
2 | 10 to 200 nM | CCN(C)c1nc(=O)n([C@@H](C)c2cnc[nH]2)c2cc(C(F)(F)F)ccc12 (single isomer, unassigned) [1.035]
3 | 10 to 200 nM | CCN(C)c1nc(=O)n([C@H](C)c2cnc[nH]2)c2cc(C(F)(F)F)ccc12 (single isomer, unassigned) [1.036]
4 | 10 to 200 nM | CC(C)N(C)c1nc(=O)n([C@@H](C)c2cnc[nH]2)c2cc(C(F)(F)F)ccc12 (single isomer, unassigned) [1.037]
5 | 10 to 200 nM | CC(C)N(C)c1nc(=O)n([C@H](C)c2cnc[nH]2)c2cc(C(F)(F)F)ccc12 (single isomer, unassigned) [1.038]
6 | 200 to 500 nM | C[C@H](c1cnc[nH]1)n1c(=O)nc(N2CCC2)c2ccc(Br)cc21 (single isomer, unassigned) [1.039]
7 | 10 to 200 nM | C[C@@H](c1cnc[nH]1)n1c(=O)nc(N2CCC2)c2ccc(Br)cc21 (single isomer, unassigned) [1.040]
8 | 10 to 200 nM | CC[C@H](c1cnc[nH]1)n1c(=O)nc(N(C)C)c2ccc(C(F)(F)F)cc21 (single isomer, unassigned) [1.041]
9 | 200 to 500 nM | CC[C@@H](c1cnc[nH]1)n1c(=O)nc(N(C)C)c2ccc(C(F)(F)F)cc21 (single isomer, unassigned) [1.042]
10 | 10 to 200 nM | C[C@H](c1cnc[nH]1)n1c(=O)nc(N(C)C)c2ccc(Br)cc21 (single isomer, unassigned) [1.043]
11 | < 10 nM | C[C@@H](c1cnc[nH]1)n1c(=O)nc(N(C)C)c2ccc(Br)cc21 (single isomer, unassigned) [1.044]
12 | < 10 nM | C[C@H](c1cnc[nH]1)n1c(=O)nc(N(C)C)c2ccc(Cl)cc21 (single isomer, unassigned) [1.047]
13 | 10 to 200 nM | C[C@@H](c1cnc[nH]1)n1c(=O)nc(N(C)C)c2ccc(Cl)cc21 (single isomer, unassigned) [1.048]
14 | < 10 nM | C[C@H](c1cc[nH]n1)n1c(=O)nc(N(C)C)c2ccc(Cl)cc21 (single isomer, unassigned) [1.059]
15 | 10 to 200 nM | C[C@H](c1nc[nH]n1)n1c(=O)nc(N(C)C)c2ccc(Cl)cc21 (single isomer, unassigned) [1.060]
16 | 500 to 1000 nM | C[C@@H](c1nc[nH]n1)n1c(=O)nc(N(C)C)c2ccc(Cl)cc21 (single isomer, unassigned) [1.061]
17 | 1000 to 10000 nM | CN(C)c1nc(=O)n([C@@H](c2c[nH]cn2)C(F)F)c2nc(C(F)(F)F)ccc12 (single isomer, unassigned) [1.063]
18 | 200 to 500 nM | CN(C)c1nc(=O)n([C@H](c2c[nH]cn2)C(F)F)c2nc(C(F)(F)F)ccc12 (single isomer, unassigned) [1.064]
19 | 10 to 200 nM | C[C@H](c1cc[nH]n1)n1c(=O)nc(N)c2ccc(Cl)cc21 (single isomer, unassigned) [1.069]

Row | IC50 | SMILES
20 | 200 to 500 nM | C[C@@H](c1cc[nH]n1)n1c(=O)nc(N)c2ccc(Cl)cc21 (single isomer, unassigned) [1.070]
21 | 1000 to 10000 nM | CNc1nc(=O)n(Cc2cnsc2)c2cc(C(F)(F)F)ccc12 [1.029, 1-(Isothiazol-4-ylmethyl)-4-(methylamino)-7-(trifluoromethyl)quinazolin-2(1H)-one]
22 | 10 to 200 nM | CN(C)c1nc(=O)n(Cc2cnc[nH]2)c2cc(C(F)(F)F)ccc12 [1.030, 1-((1H-Imidazol-5-yl)methyl)-4-(dimethylamino)-7-(trifluoromethyl)quinazolin-2(1H)-one]
23 | 10 to 200 nM | CC(c1c[nH]cn1)n1c(=O)nc(N(C)C)c2ccc(Br)cc21 (centres unmarked) [1.031, 1-(1-(1H-imidazol-4-yl)ethyl)-7-bromo-4-(dimethylamino)quinazolin-2(1H)-one]
24 | 10 to 200 nM | CC(c1c[nH]cn1)n1c(=O)nc(N2CCC2)c2ccc(Br)cc21 (centres unmarked) [1.032, 1-(1-(1H-imidazol-4-yl)ethyl)-4-(azetidin-1-yl)-7-bromoquinazolin-2(1H)-one]
25 | 200 to 500 nM | CCC(c1cnc[nH]1)n1c(=O)nc(N(C)C)c2ccc(C(F)(F)F)cc21 (centres unmarked) [1.033, 1-(1-(1H-imidazol-5-yl)propyl)-4-(dimethylamino)-7-(trifluoromethyl)quinazolin-2(1H)-one]
26 | 200 to 500 nM | CN(C)c1nc(=O)n(Cc2cnc[nH]2)c2cc(Cl)ccc12 [1.034, 1-((1H-imidazol-5-yl)methyl)-7-chloro-4-(dimethylamino)quinazolin-2(1H)-one]
27 | 200 to 500 nM | CN(C)c1nc(=O)n(C(c2cnc[nH]2)C2CC2)c2cc(C(F)(F)F)ccc12 (centres unmarked) [1.045, 1-(Cyclopropyl(1H-imidazol-5-yl)methyl)-4-(dimethylamino)-7-(trifluoromethyl)quinazolin-2(1H)-one]
28 | 10 to 200 nM | CC(c1cnc[nH]1)n1c(=O)nc(N(C)C)c2ccc(C(F)(F)F)nc21 (centres unmarked) [1.046, 1-(1-(1H-Imidazol-5-yl)ethyl)-4-(dimethylamino)-7-(trifluoromethyl)pyrido[2,3-d]pyrimidin-2(1H)-one]
29 | 1000 to 10000 nM | Cc1nc[nH]c1Cn1c(=O)nc(N(C)C)c2ccc(C(F)(F)F)cc21 [1.050, 4-(Dimethylamino)-1-((4-methyl-1H-imidazol-5-yl)methyl)-7-(trifluoromethyl)quinazolin-2(1H)-one]
30 | 10 to 200 nM | CN(C)c1nc(=O)n(Cc2nc[nH]n2)c2cc(C(F)(F)F)ccc12 [1.051, 1-((1H-1,2,4-Triazol-3-yl)methyl)-4-(dimethylamino)-7-(trifluoromethyl)quinazolin-2(1H)-one]
31 | 10 to 200 nM | CN(C)c1nc(=O)n(Cc2ccccn2)c2nc(C(F)(F)F)ccc12 [1.052, 4-(Dimethylamino)-1-(pyridin-2-ylmethyl)-7-(trifluoromethyl)pyrido[2,3-d]pyrimidin-2(1H)-one]
32 | 1000 to 10000 nM | CN(C)c1nc(=O)n(Cc2cccnc2)c2nc(C(F)(F)F)ccc12 [1.053, 4-(Dimethylamino)-1-(pyridin-3-ylmethyl)-7-(trifluoromethyl)pyrido[2,3-d]pyrimidin-2(1H)one]
33 | 1000 to 10000 nM | CN(C)c1nc(=O)n(Cc2ccncc2)c2nc(C(F)(F)F)ccc12 [1.054, 4-(Dimethylamino)-1-(pyridin-4-ylmethyl)-7-(trifluoromethyl)pyrido[2,3-d]pyrimidin-2(1H)one]
34 | 200 to 500 nM | CN(C)c1nc(=O)n(Cc2cncn2C)c2cc(C(F)(F)F)ccc12 [1.055, 4-(dimethylamino)-1-((1-methyl-1H-imidazol-5-yl)methyl)-7-(trifluoromethyl)quinazolin-2(1H)-one]
35 | 10 to 200 nM | CN(C)c1nc(=O)n(Cc2ccn[nH]2)c2cc(Cl)ccc12 [1.056, 1-((1H-pyrazol-5-yl)methyl)-7-chloro-4-(dimethylamino)quinazolin-2(1H)-one]
36 | 500 to 1000 nM | CN(C)c1nc(=O)n(CC2CNC(=O)C2)c2cc(C(F)(F)F)ccc12 (centres unmarked) [1.057, 4-(Dimethylamino)-1-((5-oxopyrrolidin-3-yl)methyl)-7-(trifluoromethyl)quinazolin-2(1H)-one]
37 | 1000 to 10000 nM | CN(C)c1nc(=O)n(Cc2cn(C)cn2)c2cc(C(F)(F)F)ccc12 [1.058, 4-(Dimethylamino)-1-((1-methyl-1H-imidazol-4-yl)methyl)-7-(trifluoromethyl)quinazolin-2(1H)-one]

same assay, conditions: MAT2A inhibition, Biological Example B procedure; printed as a numeric bound, not a class symbol

Row | IC50 | SMILES
38 | > 10000 nM | Cc1ncc(Cn2c(=O)nc(N(C)C)c3ccc(C(F)(F)F)cc32)[nH]1 [1.049, 4-(Dimethylamino)-1-((2-methyl-1H-imidazol-5-yl)methyl)-7-(trifluoromethyl)quinazolin-2(1H)-one]
